Where “and” joins values, the source holds several entries; their conditions need not be identical. Equal entries are not always repeated.

The nature of series [1]: Toxicity assay (LD50) in rats. The following applies: rat, in vivo. The protocol: (§1) The LD₅₀ value was in excess of 750 mg/kg in both species.
The nature of series [2]: Toxicity assay (LD50) in mice. To be noted: mouse, in vivo. The protocol: as §1
The test system of series [3] is FeLV. As to the kind of experiment: In vivo anti-feline leukaemia virus activity in persistently infected cats. The protocol:
(§2) • (i) In Vitro Activity Susceptible feline embryo lung fibroblasts (FLF-3) were seeded onto multiwell slides (10⁵ cells/ml, 0.05ml/well) with Dulbecco-modified Eagle's essential medium (DME) and incubated at 37°C overnight. […] Concentrations were […]. After 3 days incubation at 37°C, the cultures were assayed by the indirect fluorescent antigen test for the production of FeLV. […] Two cats (a) received 15mg/kg/day, three (b) received 30mg/kg/day and another two (c) received 45mg/kg/day. All doses were administered as three equal doses daily. Of cats (a), only one responded to treatment at all, showing a 10% decrease in FeLV⁺ white blood cells (wbc's). Cats (b) (after 6 weeks) all responded to treatment showing a 10% and 90% drop in Fel_V⁺ wbc's. […] All measurements were taken after 3 weeks therapy, unless otherwise stated.

In series [4] the test system is feline leukaemia virus (FeLV). As to the kind of experiment: In vitro anti-feline leukaemia virus activity, indirect fluorescent antigen test in FLF-3 cells. It counts as cell-based, feline embryo lung fibroblasts (FLF-3). To be noted: 3 days incubation at 37°C. As to the method:
as §2

On to `Cc1cn([C@H]2C[C@H](N=[N+]=[N-])[C@@H](CO)O2)c(=O)[nH]c1=O`, for which the LD50 in series [1] and in series [2] was above 750 mg/kg in each case. Moreover, in series [3] (cats (a), intravenous 15mg/kg/day in three equal doses daily, after 3 weeks, only one of two cats responded), the “decrease in FeLV+ white blood cells (wbc's)” value is 10%. In addition, in series [3] (cats (b), intravenous 30mg/kg/day in three equal doses daily, after 6 weeks, individual cats, 30 mg/kg/day), the “drop in FeLV+ wbc's” value is 10% and 90% and 5%. In addition, the “drop in plasma levels of free FeLV” value in series [3] (cats (b), third cat, intravenous 30mg/kg/day, after 6 weeks) is “hundred-fold”. The “decrease in FeLV+ wbc's” value in series [3] (cats (c), intravenous 45mg/kg/day in three equal doses daily, after 3 weeks, one of two cats) worked out at 10%. The reduction in lymphadenopathy result in series [3] (cats (c), intravenous 45mg/kg/day, after 3 weeks, one cat) was “from 2 cm to 0.5 cm”. Also, the response to treatment entry in series [3] (cats (c), intravenous 45mg/kg/day, after 3 weeks, the other of two cats) is “no response”. Further, in series [4] (50µM and above), the “production of FeLV” value is “Complete absence of FeLV”. Moreover, in series [4] (0.1µm), the activity result is on record as “no activity”. The inhibition in series [4] (1µm) is 50-75%. Moreover, the inhibition at 10 µM in series [4] (72 h, 10µM) worked out at 90%.

In general, LD50 refers to the dose expected to kill half of the subjects tested. A low value points to greater toxicity. The inhibition is the drop in the measured response relative to a control, in per cent. A low value points to a weak effect.

Source of the values: EP0199451B1, “Therapeutic nucleosides” (THE WELLCOME FOUNDATION LIMITED, priority 1985, dated 1986).
